These results are taken from patent EP2769738B1, “Conjugated TLR7 and/or TLR8 and TLR2 polycationic agonists” (Invivogen, priority 2013, dated 2014).

For assay [1], the system named is ISG54 promoter activity in B16-ISG54 reporter cells. Description: IFN response assay, B16-ISG54 luciferase reporter cells. Particulars: Figure 6B, in complexes with pDNA 3:24 (w:w), overnight. In kind it is cell-based, mouse. The procedure: (§1) The effect of the pDNA:TLR7-TLR2 polyamine molecules complexes on inducing an interferon response was examined. pDNA:TLR7-TLR2 polyamine molecules mixtures (pDNA:TLR7-TLR2 polyamine molecules ratio 3:24, w:w) in serum-free medium or 5% glucose were prepared as described above and added to IFN reporter cells. Luciferase reporter cell lines were used to assay interferon response. A plasmid containing an interferon-inducible luciferase reporter gene was introduced into mouse RAW 264.7 macrophages and mouse B16 melanoma cells, giving rise to the RAW-ISG54 and B16-ISG54 reporter cell lines respectively. Expression of the luciferase reporter gene by the plasmid is under the control of an interferon-inducible promoter (I-ISG54) comprising five interferon-stimulated response elements (ISRE) and the minimal promoter of the human ISG-54K (Interferon Stimulation of a Gene encoding a 54 kDa protein) gene. The ISG-54K gene is induced by interferon regulatory factor 3 (IRF3), which has a key involvement in […] responses (Grandvaux et al. 2002) and the minimal promoter of the human ISG-54K gene contains two ISRE sites and fully inducible by type I interferons (IFN-α and IFN-β) and interferon regulatory factors (IRFs) (Wathelet et al. 1988; Grandvaux et al. 2002).
(§2) The RAW-ISG54 and B16-ISG54 reporter cell lines were seeded onto 96 well microtiter plates at 100,000 cells per well and 75,000 cells per well respectively. […] The induced luciferase expression was assessed in the reporter cell lines using a coelenterazine-base luminescence assay reagent, the Quanti-LucTM (InvivoGen). Secreted luciferase activity was determined by bioluminescence quantification of the cell culture media using a microplate luminometer (FLUOstar OPTIMA from BMG Labtech).
Background: A reporter such as luciferase makes a cellular process visible.

For assay [2], the system named is ISG54 promoter activity in RAW-ISG54 reporter cells. Kind of assay: IFN response assay, RAW-ISG54 luciferase reporter cells. The assay is classed as cell-based, mouse. Particulars: Figure 6A, in complexes with pDNA 3:24 (w:w), overnight. The procedure:
as §1, §2

For `CCCCCCCCCCCCCCCC(=O)OCC(CSC[C@H](N)C(=O)N[C@@H](COC(=O)c1ccc(Cn2c(O)nc3c(N)nc(NCCCC)nc32)cc1)C(=O)NCCCNCCCCNCCCN)OC(=O)CCCCCCCCCCCCCCC` (stereo partly drawn) [CL514, (6R,9S)-6,23-diamino-9-((4-((6-amino-2-(butylamino)-8-hydroxy-9H-purin-9-yl)methyl)benzoyloxy)methyl)-7,10-dioxo-4-thia-8,11,15,20-tetraazatricosane-1,2-diyl dipalmitate], the “ability to induce an IFN response (ISG54 promoter activity) in B16-ISG54 reporter cells” value in assay [1] was “induce an IFN response in B16-ISG54 reporter cells”. The “ability to induce an IFN response (ISG54 promoter activity) in RAW-ISG54 reporter cells” value in assay [2] is on record as “induce an IFN response in RAW-ISG54 reporter cells”.
The corresponding values for `CCCCCCCCCCCCCCCC(=O)OCC(CSC[C@H](N)C(=O)N[C@@H](CCC(=O)NCCCNCCCCNCCCN)C(=O)Nc1ccc(Cn2c(O)nc3c(N)nc(NCCCC)nc32)cc1)OC(=O)CCCCCCCCCCCCCCC` (stereo partly drawn) [CL527, (6R,9S)-6,25-diamino-9-(4-((6-amino-2-(butylamino)-8-hydroxy-9H-purin-9-yl)methyl)phenylcarbamoyl)-7,12-dioxo-4-thia-8,13,17,22-tetraazapentacosane-1,2-diyl dipalmitate] are “induce an IFN response in B16-ISG54 reporter cells” and “induce an IFN response in RAW-ISG54 reporter cells”.
For the molecule `CCCCCCCCCCCCCCCC(=O)OCC(CSC[C@H](N)C(=O)NCCCNCCCCNCCCNC(=O)CNC(=O)c1ccc(Cn2c(O)nc3c(N)nc(NCCCC)nc32)cc1)OC(=O)CCCCCCCCCCCCCCC` (stereo partly drawn) [CL553, (20R)-20-amino-1-(4-((6-amino-2-(butylamino)-8-hydroxy-9H-purin-9-yl)methyl)phenyl)-1,4,19-trioxo-22-thia-2,5,9,14,18-pentaazapentacosane-24,25-diyl dipalmitate], in assay [1], the “ability to induce an IFN response (ISG54 promoter activity) in B16-ISG54 reporter cells” value is “induce an IFN response in B16-ISG54 reporter cells”. Also, the “ability to induce an IFN response (ISG54 promoter activity) in RAW-ISG54 reporter cells” value in assay [2] is listed as “induce an IFN response in RAW-ISG54 reporter cells”.
